Test results from US20030114445A1, “N3-substituted 6-anilinopyrimidines and methods to treat-Gram-positive bacterial and mycoplasmal infections” (priority 2001, published 2003).
In brackets after ≈: the same amount, converted by molar mass.

How the values were obtained:
B. subtilis = test: Inhibition of bacterial growth on agar plates (MIC); format: cell-based; conditions: Bacillus subtilis, 37° C., 24 hours
Description: (§1) Each compound is assayed against a panel of Bacillus, Enterococcus and Staphylococcus, and a Gram-negative bacterium Escherichia coli as negative control, grown in appropriate plate media solidified with 1.3% agar-agar. Stock solutions of the compounds in dimethylsulfoxide or water, depending on solubility, are added to sterile medium at a temperature of 60° C. […] One tenth mL of diluted bacteria containing 500-1000 colony-forming units (CFU) are plated and spread, and the plates incubated at 37° C. for 24 hours. MIC (minimum inhibitory concentration) is equivalent to the lowest concentration at which growth, i.e. colony formation, is not observed.

S.aureus (Smith) = test: as above; format: cell-based; conditions: Staphylococcus aureus, 37° C., 24 hours
Description: as §1

E. fecium = test: as above; format: cell-based; conditions: 37° C., 24 hours
Description: as §1

E. fecalis = test: as above; format: cell-based; conditions: 37° C., 24 hours
Description: as §1

B.subtilis pol IIIC = B.subtilis pol IIIC (Bacillus subtilis, UniProt P13267); test: biochemical
Sequence of B.subtilis pol IIIC (P13267 whole entry): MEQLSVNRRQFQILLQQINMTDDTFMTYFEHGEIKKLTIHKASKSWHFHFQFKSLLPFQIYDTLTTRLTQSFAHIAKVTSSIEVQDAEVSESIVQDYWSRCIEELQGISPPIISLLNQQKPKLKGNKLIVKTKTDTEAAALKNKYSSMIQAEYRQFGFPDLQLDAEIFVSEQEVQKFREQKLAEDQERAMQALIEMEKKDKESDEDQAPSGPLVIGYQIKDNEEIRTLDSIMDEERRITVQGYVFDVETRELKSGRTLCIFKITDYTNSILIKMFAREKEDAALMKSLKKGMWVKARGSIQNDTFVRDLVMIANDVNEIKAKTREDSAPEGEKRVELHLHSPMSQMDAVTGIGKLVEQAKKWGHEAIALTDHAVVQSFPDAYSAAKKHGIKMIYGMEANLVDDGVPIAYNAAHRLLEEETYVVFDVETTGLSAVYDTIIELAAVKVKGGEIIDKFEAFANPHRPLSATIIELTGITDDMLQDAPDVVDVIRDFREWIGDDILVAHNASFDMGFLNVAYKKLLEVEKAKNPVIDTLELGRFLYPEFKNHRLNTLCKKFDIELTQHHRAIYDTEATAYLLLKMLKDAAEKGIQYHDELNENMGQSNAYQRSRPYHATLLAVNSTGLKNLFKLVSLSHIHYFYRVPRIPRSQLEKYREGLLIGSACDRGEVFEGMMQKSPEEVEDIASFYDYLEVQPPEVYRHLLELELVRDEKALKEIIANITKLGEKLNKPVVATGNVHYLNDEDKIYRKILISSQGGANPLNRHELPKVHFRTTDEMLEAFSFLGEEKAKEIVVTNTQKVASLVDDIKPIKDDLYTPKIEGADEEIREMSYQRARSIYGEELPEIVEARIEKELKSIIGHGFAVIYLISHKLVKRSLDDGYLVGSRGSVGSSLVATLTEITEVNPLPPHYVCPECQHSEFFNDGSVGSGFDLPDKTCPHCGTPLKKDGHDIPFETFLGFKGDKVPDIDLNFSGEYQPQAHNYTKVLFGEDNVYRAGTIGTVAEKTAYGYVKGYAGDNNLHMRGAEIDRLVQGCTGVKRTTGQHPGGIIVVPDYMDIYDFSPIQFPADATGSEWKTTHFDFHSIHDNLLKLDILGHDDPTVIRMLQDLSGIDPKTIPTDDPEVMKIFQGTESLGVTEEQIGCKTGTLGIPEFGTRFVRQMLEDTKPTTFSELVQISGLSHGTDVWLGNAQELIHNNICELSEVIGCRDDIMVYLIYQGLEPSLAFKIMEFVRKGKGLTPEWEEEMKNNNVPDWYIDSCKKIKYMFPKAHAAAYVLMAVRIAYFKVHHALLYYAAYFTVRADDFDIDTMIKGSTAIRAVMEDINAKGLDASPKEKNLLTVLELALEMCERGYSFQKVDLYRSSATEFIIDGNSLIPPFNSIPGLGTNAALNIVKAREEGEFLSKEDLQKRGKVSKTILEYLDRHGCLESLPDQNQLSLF
Description: DNA pol activity was assayed as described in Barnes et al., Nuc. Acids Res., 6:1203-19 (1979), using activated “nicked” calf-thymus DNA as template primer, 10 pM [^3H-methyl]-dTTP as the labelled dNTP substrate, and dATP, dCTP, and dGTP at 25 μM each.
Inhibitory activity of the compounds is determined by measuring the ability of the agent to inhibit enzyme-catalyzed incorporation of [^3H]-dTMP into nicked calf thymus DNA in the absence of the competitor dGTP or dATP (“truncated assay”) (see G. E. Wright and N. C. Brown, Inhibition of Bacillus subtilis DNA Polymerase III by Arylhydrazinopyrimidines: Novel Properties of 2-Thiouracil Derivatives, Biochim. Biophys. Acta 432:37-48 (1976)). Purified pol IIIC is added to a buffered solution containing Mg^2+, DTT, glycerol, nicked calf thymus DNA, saturating concentrations of dATP, dCTP, dTTP and [^3H]-dTTP. Reaction mixtures are incubated at 30° C. for 10 minutes, quenched and filtered, and radioactivity in the acid-insoluble material measured by scintillation counting. Experiments are done in triplicate. Inhibitors are assayed by addition of several dilutions of a stock solution of inhibitor (DMSO or water, depending on solubility) before enzyme addition. […] The truncated assay, i.e. exclusion of the competitive substrate dGTP or dATP, depending upon whether the compound is a uracil derivative or an isocytosine derivative, respectively, allows for the direct determination of apparent inhibitor constants (K,) in this assay system.

Structure (SMILES): CCc1cc(Nc2cc(=O)n(CCCCN3CCN(c4ncc(C(=O)OC)c(C(F)(F)F)n4)CC3)c(=O)[nH]2)ccc1C [Compound 62, 3-{4-[4-(4-trifluoromethyl-5-methoxycarbonyl-2-pyrimidinyl)-1-piperazinyl]butyl}-6-(3-ethyl-4-methylanilino)uracil]
- MIC (B. subtilis): 80 µg/mL (≈ 136 µM)
- MIC (S.aureus (Smith)): 80 µg/mL (≈ 136 µM)
- MIC (E. fecium): 80 µg/mL (≈ 136 µM)
- MIC (E. fecalis): 80 µg/mL (≈ 136 µM)
- Ki (B.subtilis pol IIIC): 550 nM

Structure (SMILES): CCc1cc(Nc2cc(=O)n(CCCCCNC[C@H]3CCNC3)c(=O)[nH]2)ccc1C [Compound 63, 3(S)-{5-[(3-pyrrolidinyl)methylamino]pentyl}-6-(3-ethyl-4methylanilino)uracil]
- MIC (B. subtilis): 20 µg/mL (≈ 48.4 µM)
- MIC (S.aureus (Smith)): 40 µg/mL (≈ 96.7 µM)
- MIC (E. fecium): 80 µg/mL (≈ 193 µM)
- MIC (E. fecalis): 80 µg/mL (≈ 193 µM)
- Ki (B.subtilis pol IIIC): 112 nM

Structure (SMILES): CCc1cc(Nc2cc(=O)n(CCCCN3CCN(c4ccc(C(F)(F)F)cc4[N+](=O)[O-])CC3)c(=O)[nH]2)ccc1C [Compound 64, 3-{4-[4-(2-nitro-4-trifluoromethylphenyl)-1-piperazinyl]butyl}-6-(3-ethyl-4-methylanilino)uracil]
- MIC (B. subtilis): 80 µg/mL (≈ 139 µM)
- MIC (S.aureus (Smith)): 80 µg/mL (≈ 139 µM)
- MIC (E. fecium): 80 µg/mL (≈ 139 µM)
- MIC (E. fecalis): 80 µg/mL (≈ 139 µM)
- Ki (B.subtilis pol IIIC): 58800 nM

Structure (SMILES): CCc1cc(Nc2cc(=O)n(CCCCN3CCN(c4ncc(C(=O)O)c(C(F)(F)F)n4)CC3)c(=O)[nH]2)ccc1C [Compound 65, 3-{4-[4-(4-trifluoromethyl-5-carboxy-2-pyrimidinyl)-1-piperazinyl]butyl}-6-(3-ethyl-4-methylanilino)uracil]
- MIC (B. subtilis): 80 µg/mL (≈ 139 µM)
- MIC (S.aureus (Smith)): 80 µg/mL (≈ 139 µM)
- MIC (E. fecium): 40 µg/mL (≈ 69.5 µM)
- MIC (E. fecalis): 80 µg/mL (≈ 139 µM)
- Ki (B.subtilis pol IIIC): 113 nM

Structure (SMILES): CCc1cc(Nc2cc(=O)n(CCCCCNc3ncc(C#N)c(N)n3)c(=O)[nH]2)ccc1C [Compound 66, 3-{5-[(4-amino-5-cyano-2-pyrimidinyl)amino]pentyl}-6-(3-ethyl-4-methylanilino)uracil]
- MIC (B. subtilis): 80 µg/mL (≈ 178 µM)
- MIC (S.aureus (Smith)): 80 µg/mL (≈ 178 µM)
- MIC (E. fecium): 80 µg/mL (≈ 178 µM)
- MIC (E. fecalis): 80 µg/mL (≈ 178 µM)
- Ki (B.subtilis pol IIIC): 39500 nM

Structure (SMILES): CCc1cc(Nc2cc(=O)n(CCCCCn3cnc4c(=O)n(C)c(=O)n(C)c43)c(=O)[nH]2)ccc1C [Compound 67, 3-{5-[9-(1,3-dimethyl-2,6-dioxopurinyl)]pentyl}-6-(3-ethyl-4-methylanilino)uracil]
- MIC (B. subtilis): 2.5 µg/mL (≈ 5.07 µM)
- MIC (S.aureus (Smith)): 10 µg/mL (≈ 20.3 µM)
- MIC (E. fecium): 10 µg/mL (≈ 20.3 µM)
- MIC (E. fecalis): 20 µg/mL (≈ 40.5 µM)
- Ki (B.subtilis pol IIIC): 60 nM

Structure (SMILES): CCc1cc(Nc2cc(=O)n(CCCCCN3CCc4c([nH]c5ccc(OC)cc45)C3C(=O)O)c(=O)[nH]2)ccc1C (stereo not drawn) [Compound 68, 3-[5-(1-carboxy-6-methoxy-2,3,4,9-tetrahydro-1H-β-carboline-2-yl)pentyl]-6-(3-ethyl-4-methylanilino)uracil]
- MIC (B. subtilis): 20 µg/mL (≈ 35.7 µM)
- MIC (S.aureus (Smith)): 40 µg/mL (≈ 71.5 µM)
- MIC (E. fecium): 80 µg/mL (≈ 143 µM)
- MIC (E. fecalis): 80 µg/mL (≈ 143 µM)
- Ki (B.subtilis pol IIIC): 288 nM

Structure (SMILES): CCc1cc(Nc2cc(=O)n(CCCCCN3CCc4c([nH]c5ccc(OC)cc45)C3)c(=O)[nH]2)ccc1C [Compound 69]
- MIC (B. subtilis): 5 µg/mL (≈ 9.7 µM)
- MIC (S.aureus (Smith)): 10 µg/mL (≈ 19.4 µM)
- MIC (E. fecium): 20 µg/mL (≈ 38.8 µM)
- MIC (E. fecalis): 20 µg/mL (≈ 38.8 µM)
- Ki (B.subtilis pol IIIC): 109 nM

Structure (SMILES): CCc1cc(Nc2cc(=O)n(CCCCCNC(=O)c3cccs3)c(=O)[nH]2)ccc1C [Compound 70, 3-[5-(2-thiophenecarboxamido)pentyl]-6-(3-ethyl-4-methylanilino)uracil]
- MIC (B. subtilis): 1.25 µg/mL (≈ 2.84 µM)
- MIC (S.aureus (Smith)): 10 µg/mL (≈ 22.7 µM)
- MIC (E. fecium): 5 µg/mL (≈ 11.3 µM)
- MIC (E. fecalis): 5 µg/mL (≈ 11.3 µM)
- Ki (B.subtilis pol IIIC): 65 nM

Structure (SMILES): CCCCC1(O)CCN(CCCCCn2c(=O)cc(Nc3ccc(C)c(CC)c3)[nH]c2=O)CC1 [Compound 71, 3-{5-[1-(4-hydroxy-4-butylpiperidinyl)]pentyl}-6-(3-ethyl-4-methylanilino)uracil]
- MIC (B. subtilis): 5 µg/mL (≈ 10.6 µM)
- MIC (S.aureus (Smith)): 10 µg/mL (≈ 21.2 µM)
- MIC (E. fecium): 10 µg/mL (≈ 21.2 µM)
- MIC (E. fecalis): 10 µg/mL (≈ 21.2 µM)
- Ki (B.subtilis pol IIIC): 2100 nM

Structure (SMILES): CCc1cc(Nc2cc(=O)n(CCCCCN3CC=C(c4cccs4)CC3)c(=O)[nH]2)ccc1C [Compound 72, 3-{5-[1-(4-(thiophen-2-yl)-1,2,3,6-tetrahydropyridinyl)]pentyl}-6-(3-ethyl-4-methylanilino)uracil]
- MIC (B. subtilis): 5 µg/mL (≈ 10.4 µM)
- MIC (S.aureus (Smith)): 20 µg/mL (≈ 41.8 µM)
- MIC (E. fecium): 40 µg/mL (≈ 83.6 µM)
- MIC (E. fecalis): 20 µg/mL (≈ 41.8 µM)
- Ki (B.subtilis pol IIIC): 77 nM

Structure (SMILES): CCc1cc(Nc2cc(=O)n(CCCCCN3CC=C(c4cccc5ccsc45)CC3)c(=O)[nH]2)ccc1C [Compound 73, 3-{5-[1-(4-(benzo[b]thiophen-7-yl)-1,2,3,6-tetrahydropyridinyl)]pentyl}-6-(3-ethyl-4-methylanilino)uracil]
- MIC (B. subtilis): 10 µg/mL (≈ 18.9 µM)
- MIC (S.aureus (Smith)): 10 µg/mL (≈ 18.9 µM)
- MIC (E. fecium): > 80 µg/mL
- MIC (E. fecalis): > 80 µg/mL
- Ki (B.subtilis pol IIIC): 80 nM
